Reference: PMC7532004, “Site-specific effects of neurosteroids on GABAA receptor activation and desensitization” (eLife, 2020)

Molecular target: α1(V256S)β3 GABAAR (UniProt P28472+P62813, V283S)
Assay: Two-electrode voltage clamp in Xenopus laevis oocytes, V256S mutant
Assay type: cell-based
Set-up: expressed in transfected cells; host or cells: Xenopus laevis oocytes injected with cRNA
Details: for % of desensitization (reduction of steady-state current): 1 mM GABA
Protocol: The wild-type and mutant α1β3 GABAAR were expressed in oocytes from the African clawed frog (Xenopus laevis). Frogs were purchased from Xenopus 1 (Dexter, MI), and housed and cared for in a Washington University Animal Care Facility under the supervision of the Washington University Division of Comparative Medicine. Harvesting of oocytes was conducted under the Guide for the Care and Use of Laboratory Animals as adopted and promulgated by the National Institutes of Health. The animal protocol (No. 20180191) was approved by the Animal Studies Committee of Washington University in St. Louis. The oocytes were injected with a total of 12 ng cRNA. The ratio of cRNAs was 5:1 ratio (α1:β3) to minimize the expression of β3 homomeric receptors. Following injection, the oocytes were incubated in ND96 (96 mM NaCl, 2 mM KCl, 1.8 mM CaCl2, 1 mM MgCl2, 5 mM HEPES; pH 7.4) with supplements (2.5 mM Na pyruvate, 100 U/ml penicillin, 100 μg/ml streptomycin and 50 μg/ml gentamycin) at 16°C for 2 days prior to conducting electrophysiological recordings. The electrophysiological recordings were conducted at room temperature using standard two-electrode voltage clamp. The oocytes were clamped at −60 mV. The chamber (RC-1Z, Warner Instruments, Hamden, CT) was perfused with ND96 at 5–8 ml/min. Solutions were gravity-applied from 30 ml glass syringes with glass luer slips via Teflon tubing. The current responses were amplified with an OC-725C amplifier (Warner Instruments, Hamden, CT), digitized with a Digidata 1200 series digitizer (Molecular Devices), and stored using pClamp (Molecular Devices). Current traces were analyzed with Clampfit (Molecular Devices). […] The stock solution of muscimol was made at 20 mM in ND96 and stored at 4°C. The steroids were dissolved in DMSO at 10–20 mM and stored at room temperature.

Chain of α1(V256S)β3 GABAAR (P62813 28-455 V283S): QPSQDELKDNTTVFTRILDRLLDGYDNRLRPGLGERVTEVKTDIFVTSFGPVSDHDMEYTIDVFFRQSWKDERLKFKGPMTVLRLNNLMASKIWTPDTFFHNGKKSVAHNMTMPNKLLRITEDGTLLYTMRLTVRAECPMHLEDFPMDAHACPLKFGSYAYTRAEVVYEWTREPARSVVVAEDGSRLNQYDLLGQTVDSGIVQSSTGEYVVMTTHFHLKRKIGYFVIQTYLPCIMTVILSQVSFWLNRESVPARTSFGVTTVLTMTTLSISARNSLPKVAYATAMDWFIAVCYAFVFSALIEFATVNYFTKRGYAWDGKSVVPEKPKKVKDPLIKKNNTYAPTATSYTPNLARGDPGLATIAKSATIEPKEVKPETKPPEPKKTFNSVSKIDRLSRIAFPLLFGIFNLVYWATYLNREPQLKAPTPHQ
Chain of α1(V256S)β3 GABAAR (P28472 26-473, stated change not applied): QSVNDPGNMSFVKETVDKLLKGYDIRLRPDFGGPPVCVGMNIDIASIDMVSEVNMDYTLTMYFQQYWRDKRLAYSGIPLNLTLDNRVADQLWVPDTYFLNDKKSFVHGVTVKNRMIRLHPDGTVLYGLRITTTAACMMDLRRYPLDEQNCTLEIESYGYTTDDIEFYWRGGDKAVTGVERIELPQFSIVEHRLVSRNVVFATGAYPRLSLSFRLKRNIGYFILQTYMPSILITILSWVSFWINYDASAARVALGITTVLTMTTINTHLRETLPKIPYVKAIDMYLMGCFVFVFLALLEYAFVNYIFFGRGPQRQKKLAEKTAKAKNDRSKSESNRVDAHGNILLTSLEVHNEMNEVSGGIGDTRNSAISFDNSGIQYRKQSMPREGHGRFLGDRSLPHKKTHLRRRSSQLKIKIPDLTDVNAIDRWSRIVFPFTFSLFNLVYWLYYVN

Compound | Inhibitory effect on steady-state current in the V256S mutant (3 μM 3α5αP, 1 mM GABA + 40 μM pentobarbital) | % of desensitization (reduction of steady-state current)
CC(=O)[C@H]1CC[C@H]2[C@@H]3CC[C@H]4C[C@H](O)CC[C@]4(C)[C@H]3CC[C@]12C [3α5αP, allopregnanolone] | eliminated | 
CC(=O)[C@H]1CC[C@H]2[C@@H]3CC[C@H]4C[C@@H](O)CC[C@]4(C)[C@H]3CC[C@]12C [3β5αP, epi-allopregnanolone] |  | completely eliminated
C#CCCO[C@H]1CC[C@H]2[C@@H]3CC[C@H]4CC5(CC[C@]4(C)[C@H]3CC[C@]12C)N=N5 [KK148] |  | 0%
